Laboratory results as given in US11839873B2, “Valveless fluidic switching flowchip and uses thereof” (Protein Fluidics, Inc., priority 2018, dated 2023).
Residues, ends and D or L forms follow the SMILES beside them. *: point of attachment. Cbz = O=C(OCc1ccccc1)*

What was measured:
[1] = test system: HUVECs stimulated with an inflammatory cytokine mixture of TNF-α, IL-1β, and IFN-γ (IL-8, IL-6, MCP-1 upregulation); experiment: Multiparametric HUVEC inflammation assay, secreted cytokines quantified by microfluidic flowchip ELISA; format: cell-based, human; settings: for HUVEC inflammation response as shown by upregulation of IL-8, IL-6, and MCP-1: HUVECs stimulated with TNF-α, IL-1β, IFN-γ mixture for 20 hours at 37° C., concentration dependent effect of compound; for IL-8 expression: HUVECs, compounds added 1 hour prior to inflammatory cytokine mixture, 20 hours at 37° C.
Excerpt: We present results from a multiparametric primary human cell-based assay that uses immunoassays for secreted cytokines to evaluate the effect of different mediators on inflammatory response. Expression of the inflammation markers from primary human umbilical vein endothelial cells (HUVEC) stimulated with inflammation cytokines (TNF-α, IFN-γ, and IL-1β) was quantified by microfluidic-based ELISAs.
The Capture and Primary antibodies are specific to each immunoassay and matched antibody pairs for the MCP-1, IL-8, and IL-6 assays were obtained from a commercial source (Biolegend, San Diego, CA). The buffers and Stop Solution are common to all three assays and were made using materials obtained from Sigma-Aldrich. The SA-HRP (Becton Dickenson, San Diego, CA) and Substrate (Abcam, Cambridge, MA) were also common to each assay. The Capture Ab's were used at a concentration of 10 μg/ml and made by diluting stock Ab in a Coating Buffer solution containing phosphate buffered saline (PBS). The Primary Ab's were used at a concentration of 1 μg/ml and made by diluting stock Ab in an Assay Buffer solution containing PBS, bovine serum albumin (BSA), and Tween20. The Blocking Buffer consisted of BSA diluted in PBS. The SA-HRP was also diluted in Assay Buffer and used at a concentration of 200 ng/ml. The Substrate solution was used as provided.

[2] = test system: THP-1 cells stimulated with PMA and LPS (IL-8, IL-1β, TNFα secretion); experiment: THP-1 cell cytokine secretion assay, microfluidic flowchip ELISA; format: cell-based, human; settings: for THP-1 cellular inflammation response as shown by upregulation of IL-8: THP-1 cells stimulated with PMA and LPS for 20 hours at 37° C., concentration dependent effect of compound; for cytokine expression: THP-1 cells treated with compound prior to PMA and LPS activation, cytokine secretion quantified
Description: THP-1 cells were stimulated with PMA and LPS for 48 hours. […] To evaluate anti-inflammatory compounds, cells were treated with the kinase inhibitors SB202190 and PDTC, and the antibiotic moxifloxacin prior to activation. Then, inhibition of the inflammation responses by those anti-inflammatory compounds was measured by quantifying cytokine secretion.
A microfluidic flowchip was designed containing multiple reservoirs and nodes that accommodate the reagents required to perform an ELISA assay. The assay channel (from Well 3 to Well 9) has a cross-section of 50 μm by 300 μm and length of 25 mm while the other transfer channels have cross-sections of 50 μm by 50 μm. […] The flowchip was made out of COC using injection molding and the bottom surface was sealed with a COC film. Each reservoir has a capacity of ˜30 μl and was filled with 20 μl of the appropriate assay reagent. Assays were performed using a single protocol for all reagents as shown in FIG. 22 carried out in the following order: Capture Antibody (W3), Blocking Buffer (W2), Sample (W1), Primary Antibody (W4), Avidin-HRP (W5), Wash Buffer (Wash), Substrate (W7), and Stop Solution (W6).
The Capture and Primary antibodies are specific to each immunoassay and matched antibody pairs for the IL-8, IL-β, and TNFα assays were obtained from a commercial source (Biolegend, San Diego, CA). The buffers and Stop Solution are common to all three assays and were made using materials obtained from Sigma-Aldrich. The Avidin-HRP (Biolegend, San Diego, CA) and Substrate (Abcam, Cambridge, MA) were also common to each assay. The Capture Ab's were used at a concentration of 10 μg/ml and made by diluting stock Ab in a Coating Buffer solution containing phosphate buffered saline (PBS). The Primary Ab's were used at a concentration of 1 μg/ml and made by diluting stock Ab in an Assay Buffer solution containing PBS, bovine serum albumin (BSA), and Tween20. The Blocking Buffer consisted of BSA diluted in PBS. The Avidin-HRP was also diluted in Assay Buffer and used at a concentration of 200 ng/ml. The Substrate solution was used as provided.
Each fluid transfer step, from a source well to a destination well, followed a fluid transfer rule that included a HP portion to move the majority of fluid through a given channel followed by a longer LP portion to empty the source well without emptying the channel as described previously. The HP portion typically was between 5 and 20 sec while the LP portion typically was between 30 and 300 sec. Incubation in the assay channel was done using a different fluid transfer rule that included successive short HP transfers followed by a delay between transfers to allow interaction of the reagents with the assay channel walls. […]

SMILES | HUVEC inflammation response as shown by upregulation of IL-8, IL-6, and MCP-1 [1] | IL-8 expression [1] | THP-1 cellular inflammation response as shown by upregulation of IL-8 [2] | cytokine expression [2]
N#CC(C#N)=Cc1ccc([N+](=O)[O-])c(O)c1 [AG-126] | clearly diminished | reduced at similar concentrations | – | –
CC(C)C[C@@H](C=O)NC(=O)[C@H](CC(C)C)NC(=O)[C@H](CC(C)C)NC(=O)OCc1ccccc1 [MG-132] (Cbz-Leu-Leu-Leu-aldehyde) | clearly diminished | not affected within the concentration range studied | – | –
S=C(S)N1CCCC1 [PDTC] | – | – | clearly diminished | Concentration-dependent decreases
Oc1ccc(-c2nc(-c3ccncc3)c(-c3ccc(F)cc3)[nH]2)cc1 [SB202190] | clearly diminished | reduced at similar concentrations | clearly diminished | Concentration-dependent decreases
